Like-named read-outs stand apart in the source and are kept apart here. No end group written: not given here.
Experiments:
Assay in all cases: biochemical
Assay type in all cases: binding
[1] = target: HLA-DR DRB1*0301 (DR3) (Homo sapiens, UniProt P01903+P01911, A100K/A102G/A103R/A169T/F55Y/I96L/K41T/L162R/M171V/P40S/Q125H/Q178H/Q39Y/R42S/S66N/T106N/T262R/W38E/Y61H)
[2] = target: HLA-DR DRB1*0901 (DR9) (Homo sapiens, UniProt P01903+P01911, A100R/A103E/D57H/D86V/F55Y/F60I/F76Y/I96F/K127E/L162R/M171V/P40D/Q125H/Q99R/R33Q/R42F/S133A/S66N/T210M/V115G/W38K/Y107V/Y59G/Y89S)
[3] = target: HLA-DR DRB1*0802 (DR8) (Homo sapiens, UniProt P01903+P01911, A100R/A103L/A169T/F76Y/H45Y/I96F/K41T/L162R/M171V/P40S/Q125H/Q178H/Q39Y/Q99D/R218S/R42G/S66Y/V115G/W38E)
[4] = target: HLA-DR DRB1*0401 (DR4) (Homo sapiens, UniProt P01903+P01911, A100K/A169T/F76Y/I96L/K127E/L162R/M171V/N62H/P40V/Q125Y/R42H/S133A/S149N/S66Y/V115G/V209L/W38E)
[5] = target: HLA-DR DRB1*0701 (DR7) (Homo sapiens, UniProt P01903+P01911, A100R/A102G/A103Q/D57E/D86V/E43K/F76Y/K127E/L162R/M171V/P40G/Q125H/Q99D/R33Q/R42Y/R54Q/S133A/S66F/T210M/V115G/Y107V/Y59L/Y89S)
[6] = target: HLA-DR DRB1*0405 (DR4) (Homo sapiens, UniProt P01903+P01911, A100R/A169T/D86S/F76Y/I96L/K127E/L162R/M171V/N62H/P40V/Q125Y/R42H/S133A/S149N/S66Y/V115G/V209L/W38E)
[7] = target: HLA-DR DRB4*0101 (DR53) (Homo sapiens, UniProt P01903+P13762, G164S)
[8] = target: HLA-DR DRB1*1101 (DR11) (Homo sapiens, UniProt P01903+P01911, A100R/A169T/A87E/I96F/K41T/L162R/M171V/P40S/Q125H/Q178H/Q39Y/Q99D/R42S/S66Y/T262R/V115G/W38E)
[9] = target: HLA-DR DRB3*0101 (DR52) (Homo sapiens, UniProt P01903+P79483)
[10] = target: HLA-DR DRB1*1501 (DR15) (Homo sapiens, UniProt P01903+P01911)
[11] = target: HLA-DR DRB5*0101 (DR51) (Homo sapiens, UniProt P01903+Q30154)
[12] = target: HLA-DR DRB1*0101 (DR1) (Homo sapiens, UniProt P01903+P01911, A100R/D57E/F55L/F60I/F76Y/I96L/L162R/M171V/P40L/Q125E/R42F/V115G/Y59C)
[13] = target: HLA-DR DRB1*1302 (DR13) (Homo sapiens, UniProt P01903+P01911, A100E/A169T/K41T/L162R/M171V/P40S/Q125H/Q178H/Q39Y/Q99D/R42S/S66N/T262R/V115G/W38E/Y61H)
Sequence of HLA-DR DRB1*1302 (DR13) (P01903 26-254 limits assumed, other chains not shown): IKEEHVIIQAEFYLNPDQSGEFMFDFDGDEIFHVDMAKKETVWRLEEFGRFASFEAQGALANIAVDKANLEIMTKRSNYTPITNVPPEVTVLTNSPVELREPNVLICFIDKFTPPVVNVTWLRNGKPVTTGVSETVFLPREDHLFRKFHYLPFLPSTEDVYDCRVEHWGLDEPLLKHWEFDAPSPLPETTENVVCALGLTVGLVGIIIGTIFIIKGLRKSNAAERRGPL

Sequence of HLA-DR DRB1*1101 (DR11) (P01903 26-254 limits assumed, other chains not shown): as above
Sequence of HLA-DR DRB1*0301 (DR3) (P01903 26-254 limits assumed, other chains not shown): as above

Compound | IC50 ([1]; read-out: DRB1 *0301) [µM] | IC50 ([2]; read-out: DRB1 *0901) [nM] | IC50 ([3]; read-out: DRB1 *0802) [nM] | IC50 ([4]; read-out: DRB1 *0401) [µM] | IC50 ([5]; read-out: DRB1 *0701) [nM] | IC50 ([6]; read-out: DRB1 *0405) [µM] | IC50 [8] [nM] | IC50 [5] [nM] | IC50 [6] [µM] | IC50 [13] [nM] | IC50 [1] [µM] | IC50 [2] [nM] | IC50 [3] [nM] | IC50 ([11]; DRB5 *0101) [nM] | other results
CCTSICSLYQLENY | 71.2 | 29800 | > 54400 | 8.38 | 35600 | 0.629 | – | – | – | – | – | – | – | – | –
GAPLGAAARALAHGV | – | – | – | – | – | – | 36 | 6490 | > 13 | 15100 | – | – | – | – | IC50 [7]: 16500 nM; IC50 [9]: > 71 µM; IC50 [10]: 3.92 µM; IC50 [11]: 4500 nM; IC50 [12]: 226 nM
QLCFLKKGLGISYGR | – | – | – | – | – | – | 9.5 | 3630 | 0.443 | 88 | 158 | 200 | 40 | – | IC50 [4]: 4.44 µM
CC[C@H](C)[C@H](NC(=O)[C@H](CCCCN)NC(=O)[C@H](CC(N)=O)NC(=O)[C@@H](NC(=O)[C@@H](NC(=O)[C@H](CC(C)C)NC(=O)[C@@H](NC(=O)[C@H](CO)NC(=O)[C@H](CC(C)C)NC(=O)[C@H](C)NC(=O)[C@H](CCC(=O)O)NC(=O)CN)[C@@H](C)O)C(C)C)C(C)C)C(=O)N[C@@H](CCCNC(=N)N)C(=O)NCC(=O)N[C@H](C(=O)O)[C@@H](C)O | – | – | – | – | – | – | 977 | – | 30.1 | 55 | 29.7 | 40800 | 383 | 108 | IC50 [7]: 1510 nM
VRVEILRYFYVINRL | – | 485 | 3580 | 0.14 | 14 | 0.018 | – | – | – | – | – | – | – | – | IC50 ([12]; read-out: DRB1 *0101): 1.8 nM
ALSTLVLNRLKVGLQ | – | – | – | – | – | – | – | – | – | – | – | – | 4 | 3.9 | IC50 ([7]; DRB4 *0101): 17 nM; IC50 ([8]; DRB1 *1101): 9.1 nM; IC50 ([2]; DRB1 *0901): 2170 nM; IC50 ([10]; DRBI *1501): 0.191 µM; IC50 ([4]; DRB1 *0401): 0.517 µM; IC50 ([5]; DRB1 *0701): 647 nM; IC50 ([12]; DRB1 *0101): 49 nM; IC50 ([6]; DRB1 *0405): 2.17 µM; IC50 ([13]; DRBI *1302): 4.6 nM
VASLLTTAEVVVTE | 136 | 1960 | > 118000 | 7.43 | 369 | 6.52 | – | – | – | – | – | – | – | – | –
YLVTGERGFFYTKYT | 4.8 | 195000 | 4300 | > 20.5 | 78 | > 30.1 | – | – | – | – | – | – | – | – | IC50 ([12]; read-out: DRB1 *0101): 1150 nM
ALWRVSAEEY | – | – | – | – | – | – | – | – | – | – | > 76.6 | – | 4100 | > 35600 | IC50 ([7]; DRB4 *0101): > 7930 nM; IC50 ([8]; DRB1 *1101): 243 nM; IC50 ([2]; DRB1 *0901): 698 nM; IC50 ([10]; DRBI *1501): > 15.3 µM; IC50 ([4]; DRB1 *0401): 6.54 µM; IC50 ([5]; DRB1 *0701): 7950 nM; IC50 ([12]; DRB1 *0101): > 6340 nM; IC50 ([6]; DRB1 *0405): > 35.3 µM; IC50 ([13]; DRBI *1302): > 6400 nM
CC[C@H](C)[C@H](NC(=O)[C@H](CCCCN)NC(=O)[C@H](CC(N)=O)NC(=O)[C@@H](NC(=O)[C@@H](NC(=O)[C@H](CC(C)C)NC(=O)[C@@H](NC(=O)[C@H](CO)NC(=O)[C@H](CC(C)C)NC(=O)[C@H](C)N)[C@@H](C)O)C(C)C)C(C)C)C(=O)N[C@@H](CCCNC(=N)N)C(=O)NCC(=O)N[C@H](C(=O)N[C@@H](Cc1ccccc1)C(=O)N[C@@H](CCCCN)C(=O)O)[C@@H](C)O | – | – | – | – | – | – | – | 396 | 3.63 | – | 0.274 | 18000 | 20 | – | IC50 [4]: 0.648 µM; IC50 [12]: 75 nM
